The results in this text go back to patent US11365199B2, “Pyrazole compounds as modulators of FSHR and uses thereof” (Merck Patent GmbH, priority 2013, dated 2022).

The target of the assay is T1, FSHR (Homo sapiens, UniProt P23945).
T1 construct: expressed in transfected cells; host or cells: CHO (Cho-FSHR-LUC-1-1-43)
T1 sequence (P23945 18-695): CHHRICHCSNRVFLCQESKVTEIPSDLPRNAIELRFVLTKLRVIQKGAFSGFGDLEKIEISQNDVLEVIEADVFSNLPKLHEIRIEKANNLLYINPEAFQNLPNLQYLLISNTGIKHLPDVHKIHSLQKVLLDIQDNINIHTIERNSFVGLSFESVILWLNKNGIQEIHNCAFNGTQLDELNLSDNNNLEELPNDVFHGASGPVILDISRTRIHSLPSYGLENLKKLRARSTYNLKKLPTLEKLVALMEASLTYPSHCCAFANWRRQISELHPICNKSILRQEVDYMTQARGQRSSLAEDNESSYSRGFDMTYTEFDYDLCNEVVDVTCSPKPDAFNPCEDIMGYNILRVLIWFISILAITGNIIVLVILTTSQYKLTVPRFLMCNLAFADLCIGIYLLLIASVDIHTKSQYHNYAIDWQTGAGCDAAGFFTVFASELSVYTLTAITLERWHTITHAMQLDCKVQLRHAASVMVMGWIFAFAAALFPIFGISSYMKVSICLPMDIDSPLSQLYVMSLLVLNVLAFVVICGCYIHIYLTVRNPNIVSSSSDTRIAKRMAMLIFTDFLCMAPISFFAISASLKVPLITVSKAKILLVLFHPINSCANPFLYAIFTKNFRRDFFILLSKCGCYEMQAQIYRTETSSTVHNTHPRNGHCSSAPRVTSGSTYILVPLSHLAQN
Briefly: EC50 of cyclic AMP production in CHO FSHR cells + EC20 FSH (Assay A). The class given is cell-based. Particulars: CHO FSHR cells + EC20 FSH, cAMP HTRF; read-out: Assay A: EC50 of cyclic AMP production. How it is done:
EC50 of Cyclic AMP Production in CHO FSHR Cells+EC20 FSH (Assay A)
2500 Cho-FSHR-LUC-1-1-43 cells were plated per well in 5 μl of phenol red free DMEM/F12+1% FBS. Cells were plated in 384 well, solid white low volume plates (Greiner 784075) by Multidrop. Cells were assayed by adding 100 μl of 2×EC20 FSH/IBMX in DMEM/F12+0.1% BSA) by Multidrop to 2 μl of test compound stamped in 384 well plates (compounds are diluted 1:50). The final FSH concentration was […], and the final IBMX concentration was 200 μM. The compound plate map was as follows: Column 1: 2 μl of DMSO; Column 2: 2 μl of DMSO; Columns 3-12 and 13-24: 2 μl of test compound, diluted 1:4 in 100% DMSO, or 2 μl of FSH, diluted 1:4 in DMEM/F12+0.1% BSA. The starting concentration for FSH was 50 nM (final concentration was 0.5 nM). Furthermore, Column 23 contained 2 μl of EC100 FSH reference (100×) (diluted in DMEM/F12+0.1% BSA) at a final concentration of 0.5 nM, and Column 24 contained 2 μl of 1 mM AS707664/2 reference compound 2. 5 μl of compound+EC20 FSH mixture were transferred to cell plates (1:2 dilution into 5 μl of cell media) The plates were incubated at 37° C. for 1 h. 10 μl of mixed HTRF (CisBio #62AM4PEC) reagents were added per well and incubated at room temperature for 1 h. The plates were read on Envision using the cAMP HTRF—low volume 384 well protocol. The readout was the calculated fluorescence ratio (665 nm/620 nm). Values given in percent (%) indicate the percental effect (response) at a certain concentration of agonist relative to the maximum response of the FSH standard.
Usually EC50 stands for the concentration that produces a half-maximal response. On to `COc1cc2c(cc1-c1cnn(C(C)C)c1)-c1c(c(C(=O)N3CCOCC3(C)C)nn1-c1ccsc1)CO2` [Compound 191, (3,3-Dimethyl-morpholin-4-yl)-[8-(1-isopropyl-1H-pyrazol-4-yl)-7-methoxy-1-thiophen-3-yl-1,4-dihydro-chromeno[4,3-c]pyrazol-3-yl]-methanone], for which the EC50 is less than 100 nM. In the case of `COc1cc2c(cc1-c1ccn(C)n1)-c1c(c(C(=O)N3CCOCC3C(F)(F)F)nn1-c1ccsc1)CO2` (stereo not drawn) [Compound 144, [7-Methoxy-8-(1-methyl-1H-pyrazol-3-yl)-1-thiophen-3-yl-1,4-dihydro-chromeno[4,3-c]pyrazol-3-yl]-(3-trifluoromethyl-morpholin-4-yl)-methanone], the 50% effective concentration (EC50) was less than 100 nM.

Regarding `COc1cc2c(cc1C=C(C)C)-c1c(c(C(=O)N3CCC(O)C3)nn1-c1ccsc1)CO2` (stereo not drawn) [Compound 47, (3-Hydroxy-pyrrolidin-1-yl)-[7-methoxy-8-(2-methyl-propenyl)-1-thiophen-3-yl-1,4-dihydro-chromeno[4,3-c]pyrazol-3-yl]-methanone], the EC50 lay in the range of 1000 to 5000 nM. With `COc1cc2c(cc1-c1ccn(C)n1)-c1c(c(C(=O)NC3CC(O)C3)nn1-c1ccsc1)CO2` (stereo not drawn) [Compound 137, 7-Methoxy-8-(1-methyl-1H-pyrazol-3-yl)-1-thiophen-3-yl-1,4-dihydro-chromeno[4,3-c]pyrazole-3-carboxylic acid (3-hydroxy-cyclobutyl)-amide], the EC50 was 1000 to 5000 nM. For `COc1cc2c(cc1-c1ccnn1C)-c1c(c(C(=O)NC3(CO)COC3)nn1-c1ccsc1)CO2` [Compound 111, 7-Methoxy-8-(2-methyl-2H-pyrazol-3-yl)-1-thiophen-3-yl-1,4-dihydro-chromeno[4,3-c]pyrazole-3-carboxylic acid (3-hydroxymethyl-oxetan-3-yl)-amide] the value was 100 to 1000 nM. Take `[2H]C([2H])([2H])N(C(=O)c1nn(-c2ccsc2)c2c1COc1cc(OC)c(S(=O)(=O)C(C)C)cc1-2)C1(C)COC1` [Compound 199]: the concentration for a half-maximal effect (EC50) is less than 100 nM. Next, `COc1cc2c(cc1C=C(C)C)-c1c(c(C(=O)N3CCCC(NC(=O)OC(C)(C)C)CC3)nn1-c1ccsc1)CO2` (stereo not drawn) [Compound 35, {1-[7-Methoxy-8-(2-methyl-propenyl)-1-thiophen-3-yl-1,4-dihydro-chromeno[4,3-c]pyrazole-3-carbonyl]-azepan-4-yl}-carbamic acid tert-butyl ester]: 1000 to 5000 nM; `COc1cc2c(cc1-c1cncn1C)-c1c(c(C(=O)N(C)C(C)(C)C)nn1-c1ccsc1)CO2` [Compound 130, 7-Methoxy-8-(3-methyl-3H-imidazol-4-yl)-1-thiophen-3-yl-1,4-dihydro-chromeno[4,3-c]pyrazole-3-carboxylic acid tert-butyl-methyl-amide]: less than 100 nM.

As for `COc1cc2c(cc1CC(C)C)-c1c(c(C(=O)N3CCOCC3(C)C)nn1-c1ccsc1)CO2` [Compound 77, (3,3-Dimethyl-morpholin-4-yl)-(8-isobutyl-7-methoxy-1-thiophen-3-yl-1,4-dihydro-chromeno[4,3-c]pyrazol-3-yl)-methanone], the EC50 is less than 100 nM. Next, `COc1cc2c(cc1-c1cscn1)-c1c(c(C(=O)N(C)C(C)(C)C)nn1-c1ccsc1)CO2` [Compound 81, 7-Methoxy-8-thiazol-4-yl-1-thiophen-3-yl-1,4-dihydro-chromeno[4,3-c]pyrazole-3-carboxylic acid tert-butyl-methyl-amide]: less than 100 nM; `COc1cc2c(cc1C(O)C(C)(C)O)-c1c(c(C(=O)N(C)C(C)(C)C)nn1-c1ccsc1)CO2` (stereo not drawn) [Compound 38, 8-(1,2-Dihydroxy-2-methyl-propyl)-7-methoxy-1-thiophen-3-yl-1,4-dihydro-chromeno[4,3-c]pyrazole-3-carboxylic Acid tert-butyl-methyl-amide]: 1000 to 5000 nM. Consider `[2H]C([2H])([2H])N(CCN(C(=O)c1nn(-c2ccsc2)c2c1COc1cc(OC)c(C=C(C)C)cc1-2)C([2H])([2H])[2H])C(C)=O` [Compound 61], for which the EC50 is less than 100 nM.
